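Interpolation was linear, between the two tested concentrations surrounding the appropriate level; five concentrations were tested over 48 hours in 96-well plates. GI50: concentration for 50% inhibition of growth.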 Calls of active or inactive are those of the source. No stated cut-off is given here; in the data, active = GI50 up to about 1.1 µM and inactive = higher.
Assays:
Test in all cases: growth of human tumour cells (NCI), 48 h
M14 = system: M14
UACC-62 = system: UACC-62
SW-620 = system: SW-620
SNB-75 = system: SNB-75
HOP-62 = system: HOP-62
TK-10 = system: TK-10
SF-539 = system: SF-539
A549 = system: A549
NCI-H522 = system: NCI-H522
A498 = system: A498
NCI-H23 = system: NCI-H23
HCC 2998 = system: HCC 2998
MOLT-4 = system: MOLT-4
SK-OV-3 = system: SK-OV-3
HCT-116 = system: HCT-116
SR = system: SR
Malme-3M = system: Malme-3M
MDA-MB-231 = system: MDA-MB-231
COLO 205 = system: COLO 205
Hs-578T = system: Hs-578T

Measured: GI50

O=C1N2Cc3c4ccc5c3CN3C(=O)N6Cc7c(ccc(c7CN1C6(c1ccccc1)C23c1ccccc1)OCCOCCNCCOCCO4)OCCOCCNCCOCCO5 (stereo not given)
inactive: M14 21.8 µM | UACC-62 42.4 µM | SW-620 18 µM | SNB-75 > 100 µM | HOP-62 > 100 µM | TK-10 26.9 µM | SF-539 56.9 µM | A549 28.6 µM | NCI-H522 > 100 µM | A498 > 100 µM | NCI-H23 70.5 µM | HCC 2998 34.9 µM | MOLT-4 19.7 µM | SK-OV-3 85.9 µM | HCT-116 30.8 µM | SR 54.7 µM | Malme-3M 23.5 µM

CC(C)(SCc1ccccc1)C(N)C(=O)O (stereo not given)
inactive: M14 > 100 µM | UACC-62 > 100 µM | SW-620 > 100 µM | MDA-MB-231 > 100 µM | SNB-75 > 100 µM | HOP-62 > 100 µM | TK-10 > 100 µM | A549 > 100 µM | NCI-H522 > 100 µM | A498 > 100 µM | NCI-H23 > 100 µM | MOLT-4 > 100 µM | HCT-116 > 100 µM | SR > 100 µM | Malme-3M > 100 µM

CC1=CCC[C@H]2[C@](C)(CC3=CC(=O)C(SCC(C)C)=CC3=O)[C@@H](C)CC[C@]12C
inactive: M14 18.2 µM | UACC-62 14.3 µM | SW-620 17.3 µM | MDA-MB-231 24.6 µM | SNB-75 10.9 µM | HOP-62 14.6 µM | TK-10 16.7 µM | SF-539 18 µM | A549 12.5 µM | A498 18.8 µM | NCI-H23 8.99 µM | HCC 2998 16.3 µM | MOLT-4 1.53 µM | COLO 205 13.2 µM | SK-OV-3 19.5 µM | HCT-116 12 µM | SR 7.29 µM

CC(=O)NC1(c2cc3ccccc3s2)CCCCCC1
inactive: M14 42 µM | UACC-62 31.3 µM | SW-620 47.1 µM | MDA-MB-231 40.4 µM | SNB-75 31 µM | HOP-62 46.7 µM | TK-10 47.5 µM | SF-539 51.5 µM | A549 38.9 µM | NCI-H522 20.7 µM | A498 43.4 µM | NCI-H23 35.2 µM | HCC 2998 61.2 µM | MOLT-4 18.5 µM | COLO 205 22 µM | SK-OV-3 37.1 µM | HCT-116 35.3 µM | SR 28.4 µM

COc1cc(Br)cc2c1O[C@H]1C(=O)CC3CC21CCN3C (stereo not given in full)
inactive: M14 > 100 µM | UACC-62 > 100 µM | SW-620 30.5 µM | HOP-62 > 100 µM | SF-539 > 100 µM | Hs-578T 44.7 µM | A549 94.4 µM | A498 > 100 µM | NCI-H23 24.3 µM | HCC 2998 34.1 µM | MOLT-4 25 µM | COLO 205 43.3 µM | SK-OV-3 > 100 µM | HCT-116 42 µM | SR 33.9 µM | Malme-3M > 100 µM

c1ccc(-c2nc3ccccc3n3nnnc23)cc1
inactive: M14 > 100 µM | UACC-62 > 100 µM | SW-620 > 100 µM | MDA-MB-231 > 100 µM | HOP-62 63.5 µM | TK-10 > 100 µM | SF-539 > 100 µM | A549 > 100 µM | A498 > 100 µM | NCI-H23 > 100 µM | HCC 2998 > 100 µM | MOLT-4 > 100 µM | COLO 205 > 100 µM | SK-OV-3 > 100 µM | HCT-116 > 100 µM | SR > 100 µM | Malme-3M > 100 µM

Cc1cc(N(CCC#N)CCC#N)ccc1/N=N/c1ccc([N+](=O)[O-])cc1
inactive: M14 > 100 µM | UACC-62 > 10 µM | SW-620 > 10 µM | SNB-75 > 10 µM | HOP-62 > 100 µM | TK-10 39.8 µM | SF-539 > 100 µM | A549 > 100 µM | NCI-H522 > 100 µM | A498 > 100 µM | NCI-H23 43 µM | HCC 2998 > 100 µM | MOLT-4 > 100 µM | COLO 205 > 100 µM | SK-OV-3 > 10 µM | HCT-116 17.7 µM | SR > 100 µM | Malme-3M > 100 µM

Cc1cc(C2CCCCC2)n(O)c(=O)c1 [CICLOPIROX OLAMINE]
inactive: M14 14.2 µM | UACC-62 3.03 µM | SW-620 5.85 µM | SNB-75 5.46 µM | TK-10 37.1 µM | SF-539 5.52 µM | A549 3.91 µM | NCI-H522 2.96 µM | A498 14.7 µM | NCI-H23 9.08 µM | HCC 2998 4.97 µM | MOLT-4 1.93 µM | COLO 205 39.4 µM | SK-OV-3 47 µM | HCT-116 3.7 µM | SR 2.95 µM | Malme-3M 15.7 µM

COC(=O)NC(=O)NC(Cc1ccccc1)NC(=O)OCc1ccccc1 (stereo not given)
inactive: M14 > 100 µM | UACC-62 > 100 µM | SW-620 > 100 µM | MDA-MB-231 18.5 µM | SNB-75 20.2 µM | HOP-62 47.2 µM | TK-10 45.4 µM | SF-539 19.6 µM | A549 97.7 µM | NCI-H522 28.3 µM | A498 30.3 µM | NCI-H23 40.3 µM | HCC 2998 > 100 µM | MOLT-4 > 100 µM | COLO 205 > 100 µM | SK-OV-3 18 µM | HCT-116 39.3 µM | SR > 100 µM | Malme-3M > 100 µM

O=C(Cn1cc(-c2ccccc2)nn1)NC1CCCC1
inactive: M14 > 100 µM | SW-620 > 100 µM | MDA-MB-231 > 100 µM | SNB-75 56.2 µM | HOP-62 > 100 µM | TK-10 > 100 µM | SF-539 > 100 µM | A549 > 100 µM | NCI-H522 > 100 µM | NCI-H23 > 100 µM | HCC 2998 > 100 µM | MOLT-4 > 100 µM | COLO 205 > 100 µM | HCT-116 > 100 µM | SR > 100 µM | Malme-3M > 100 µM

COCOCC/C=C/C=O
inactive: M14 > 100 µM | UACC-62 > 100 µM | SW-620 > 100 µM | SNB-75 > 100 µM | TK-10 > 100 µM | SF-539 > 100 µM | A549 > 100 µM | NCI-H522 > 100 µM | A498 > 100 µM | NCI-H23 > 100 µM | HCC 2998 > 100 µM | MOLT-4 > 100 µM | COLO 205 > 100 µM | SK-OV-3 > 100 µM | HCT-116 > 100 µM | SR > 100 µM | Malme-3M > 100 µM

Sc1nnc(-c2ccccc2Nc2ccccc2-c2nnc(S)n2-c2ccccc2)n1-c1ccccc1
inactive: M14 40.8 µM | UACC-62 58.3 µM | SW-620 26.9 µM | MDA-MB-231 22.7 µM | SNB-75 37.5 µM | HOP-62 58.5 µM | TK-10 52.8 µM | SF-539 28.8 µM | NCI-H522 26.7 µM | NCI-H23 34.4 µM | HCC 2998 36.6 µM | MOLT-4 27.2 µM | COLO 205 34.8 µM | HCT-116 63.1 µM | SR 37 µM

O=c1[nH]nc(Cc2ccccc2)n1-n1cnnc1
inactive: M14 > 100 µM | UACC-62 > 100 µM | SW-620 > 100 µM | MDA-MB-231 > 100 µM | SNB-75 > 100 µM | HOP-62 > 100 µM | TK-10 > 100 µM | SF-539 > 100 µM | A549 > 100 µM | NCI-H522 > 100 µM | NCI-H23 > 100 µM | HCC 2998 > 100 µM | MOLT-4 > 100 µM | COLO 205 > 100 µM | SK-OV-3 > 100 µM | HCT-116 > 100 µM | SR > 100 µM

N#C[BH2-][n+]1ccc(C(=O)NNC(c2ccccc2)C(F)(F)F)cc1 (stereo not given)
inactive: M14 > 100 µM | SW-620 > 100 µM | MDA-MB-231 > 100 µM | SNB-75 > 100 µM | HOP-62 97.7 µM | TK-10 > 100 µM | SF-539 > 100 µM | A549 > 100 µM | NCI-H522 68.9 µM | NCI-H23 31.7 µM | HCC 2998 > 100 µM | MOLT-4 > 100 µM | COLO 205 > 100 µM | HCT-116 > 100 µM | SR > 100 µM | Malme-3M > 100 µM

COc1ccc(N[C@H](C[S+]([O-])c2ccc(C)cc2)c2ccc(F)cc2)cc1 (stereo not given in full)
inactive: M14 64.3 µM | UACC-62 34.4 µM | SW-620 > 100 µM | MDA-MB-231 40.5 µM | SNB-75 27.2 µM | HOP-62 33.7 µM | TK-10 > 100 µM | SF-539 22.3 µM | A549 43 µM | NCI-H522 13.2 µM | NCI-H23 13.2 µM | HCC 2998 > 100 µM | MOLT-4 > 100 µM | COLO 205 > 100 µM | SK-OV-3 72.3 µM | HCT-116 > 100 µM | Malme-3M 31.9 µM

NC1(C(=O)O)CCC(C(=O)O)CC1 (stereo not given)
inactive: M14 > 100 µM | UACC-62 > 100 µM | SW-620 > 100 µM | SNB-75 > 100 µM | HOP-62 > 100 µM | TK-10 > 100 µM | SF-539 > 100 µM | A549 > 100 µM | NCI-H522 > 100 µM | A498 > 100 µM | NCI-H23 > 100 µM | HCC 2998 > 100 µM | MOLT-4 > 100 µM | COLO 205 > 100 µM | SK-OV-3 > 100 µM | HCT-116 > 100 µM | SR > 100 µM | Malme-3M > 100 µM

From ChEMBL document CHEMBL1201862, “PubChem BioAssay data set” (2004)
